Measurements reported in US11208413B2, “Pyrimidopyrimidinones useful as wee-1 kinase inhibitors” (ALMAC DISCOVERY LIMITED, priority 2017, dated 2021).
Converted amounts (≈) assume the structure as drawn. Where two headings read alike, the source gives them in different places.

Columns and labels:
Kinetic solubility = assay type: physicochemical; conditions: kinetic from dmso stock
Experimental: (§1) The test methods employed to determine Wee-1 kinase inhibitory effect, Wee-1 potency in cells and kinetic solubility were the same as those taught in WO 2015/092431 (see page 350 to 358). The other test methods employed were as follows: • i. Determination of Caco-2 permeability at pH 6.5 (pH7.4 for Comparative Example 6) was carried out at Cyprotex Ltd using standard protocols and SOPs. • ii. […] Dosing was as follows: single oral dose 5 mg/kg; single intravenous dose 1 mg/kg. • iii. Determination of pharmacokinetic parameters (CUT1/2/AUC/F %) in male Sprague-Dawley rats on Comparative Example 18 was carried out at BioDuro using standard protocols and SOPs. Dosing was as follows: oral dosing 5 mg/kg; intravenous dosing 1 mg/kg • iv. […] Dosing was as follows: repeated oral dose of 30 mg/kg, once a day for 7 days. Concentrations were measured at 4 h post dose on day 7. • v. Determination of tumor:plasma concentration ratio in the tumor-bearing mouse was carried out at Axis Bioservices Ltd using standard protocols and SOPs. Dosing was as follows: single oral dose of 30 mg/kg. • vi. Determination of CYP3A4/5 time-dependent inhibition (CYP3A4/5 IC50 shift value) was carried out at Cyprotex Ltd using standard protocols and SOPs. The in-vitro test system was: pooled human liver microsomes; a 30-min preincubation step with and without NADPH was included to observe the IC50 shift. • vii. Determination of the formation of reactive metabolites was carried out at Admescope Ltd using standard protocols and SOPs. The in-vitro test system was: human hepatocytes; the duration of incubation was: 2 hours; the technique for metabolite analysis was: LC-MS/MS.

Wee-1 kinase = Wee-1 kinase (Homo sapiens, UniProt P30291); experiment: Wee-1 kinase inhibitory effect (Wee-1 IC50); assay type: biochemical; conditions: read-out: Wee1 IC50
pCDC2 = experiment: Wee-1 potency in cells (pCDC2 value); assay type: cell-based
[1] = Rat pharmacokinetics (CL, T1/2, AUC, F %); assay type: in vivo; conditions: male Sprague-Dawley rats; for clearance: single intravenous dose 1 mg/kg, plasma clearance, read-out: Rat PK CL; for AUC(0-inf): single oral dose 5 mg/kg, plasma exposure, read-out: Rat PK AUCinf; for half-life / bioavailability: plasma, intravenous 1 mg/kg; for half-life: elimination half-life, read-out: Rat PK T1/2 (converted); for bioavailability: oral 5 mg/kg, oral bioavailability, read-out: Rat PK F %
Experimental: as §1

[2] = Caco-2 permeability (Papp A-B); assay type: in vitro ADME; conditions: human
Experimental: as §1

[3] = Brain:plasma concentration ratio in healthy mouse; assay type: in vivo; conditions: oral 30 mg/kg once a day for 7 days, 4 h post dose on day 7, read-out: Mouse tissue distribution brain/plasma ratio
Experimental: as §1, with “Determination of the formation of reactive metabolites was carried out at Admescope Ltd using standard protocols and SOPs. The in-vitro test system was: human hepatocytes; the duration of incubation was: 2 hours; the technique for metabolite analysis was: LC-MS/MS.” left out

[4] = Solubility in fasted state simulated gastric fluid (FaSSGF); assay type: physicochemical
[5] = Tumor:plasma concentration ratio in tumor-bearing mouse; assay type: in vivo; conditions: single oral dose 30 mg/kg, read-out: Mouse tissue distribution tumor/plasma ratio
Experimental: as §1, with “Determination of the formation of reactive metabolites was carried out at Admescope Ltd using standard protocols and SOPs. The in-vitro test system was: human hepatocytes; the duration of incubation was: 2 hours; the technique for metabolite analysis was: LC-MS/MS.” left out

[6] = Chemical stability in solution; assay type: physicochemical; conditions: Buffer at pH 7.4 and in DMSO
human hepatocytes = experiment: Formation of reactive metabolites in human hepatocytes; assay type: in vitro ADME; conditions: 2 hours incubation, LC-MS/MS
Experimental: as §1, with “Determination of the formation of reactive metabolites was carried out at Admescope Ltd using standard protocols and SOPs. The in-vitro test system was: human hepatocytes; the duration of incubation was: 2 hours; the technique for metabolite analysis was: LC-MS/MS.” left out

CYP3A4/5 = CYP3A4/5 time-dependent inhibition (IC50 shift); assay type: in vitro ADME; conditions: pooled human liver microsomes, 30-min preincubation with and without NADPH
Experimental: as §1, with “Determination of the formation of reactive metabolites was carried out at Admescope Ltd using standard protocols and SOPs. The in-vitro test system was: human hepatocytes; the duration of incubation was: 2 hours; the technique for metabolite analysis was: LC-MS/MS.” left out

[7] = pH 6.5, read-out: caco-2 Papp A-B pH 6.5

Chain of Wee-1 kinase (P30291 whole entry): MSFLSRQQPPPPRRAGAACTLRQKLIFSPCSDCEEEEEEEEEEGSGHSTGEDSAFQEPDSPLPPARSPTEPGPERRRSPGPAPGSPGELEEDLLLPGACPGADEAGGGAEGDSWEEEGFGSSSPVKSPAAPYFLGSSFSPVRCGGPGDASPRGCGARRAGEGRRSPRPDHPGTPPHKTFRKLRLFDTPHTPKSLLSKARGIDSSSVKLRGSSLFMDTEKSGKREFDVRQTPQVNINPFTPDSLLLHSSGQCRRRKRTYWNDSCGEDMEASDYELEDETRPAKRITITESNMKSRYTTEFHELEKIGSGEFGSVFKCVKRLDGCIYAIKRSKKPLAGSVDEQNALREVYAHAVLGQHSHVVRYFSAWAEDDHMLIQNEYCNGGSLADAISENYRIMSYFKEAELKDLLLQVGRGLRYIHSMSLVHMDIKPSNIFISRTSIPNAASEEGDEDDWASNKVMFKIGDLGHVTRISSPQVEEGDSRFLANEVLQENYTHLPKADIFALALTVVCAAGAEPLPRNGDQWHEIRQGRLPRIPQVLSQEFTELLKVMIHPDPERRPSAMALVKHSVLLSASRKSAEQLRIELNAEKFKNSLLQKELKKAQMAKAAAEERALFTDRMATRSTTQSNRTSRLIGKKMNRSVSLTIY

Compound: COc1cc(Nc2ncc3c(n2)N(C)CN(c2c(Cl)cccc2Cl)C3=O)ccc1C1CCN(C)CC1 [CE 183]
- solubility kinetic (Kinetic solubility): 60 µM (≈ 31.6 µg/mL)
- IC50 (Wee-1 kinase): 3.1 nM
- EC50 (pCDC2): 502 nM

Compound: CN1CCC(c2ccc(Nc3ncc4c(n3)N(C)CN(c3c(Cl)cccc3Cl)C4=O)cc2CO)CC1 [CE 165]
- solubility kinetic (Kinetic solubility): 194 µM (≈ 102 µg/mL)
- clearance [1]: 27 mL/min/kg
- AUC(0-inf) [1]: 397 ng·h/mL
- half-life [1]: 126 min
- bioavailability [1]: 8%
- IC50 (Wee-1 kinase): 3.1 nM
- EC50 (pCDC2): 347 nM
- Papp A→B [2, 7]: 0.3 ×10⁻⁶ cm/s

Compound: Cc1cc(Nc2ncc3c(n2)N(C)CN(c2c(Cl)cccc2Cl)C3=O)ccc1C1=CCN(C)CC1 [CE 178]
- solubility kinetic (Kinetic solubility): 55 µM (≈ 28 µg/mL)
- IC50 (Wee-1 kinase): 3.2 nM
- EC50 (pCDC2): 371 nM
- Papp A→B [2, 7]: 8.1 ×10⁻⁶ cm/s

Compound: Cc1cc(Nc2ncc3c(n2)N(C)CN(c2c(Cl)cccc2Cl)C3=O)ccc1C1CCN(C)CC1 [Example 1, 3-(2,6-dichlorophenyl)-1-methyl-7-((3-methyl-4-(1-methylpiperidin-4-yl)phenyl)amino)-2,3-dihydropyrimido[4,5-d]pyrimidin-4(1H)-one]
- Kp at 4 h [3]: 0.69
- solubility kinetic (Kinetic solubility): 215 µM (≈ 110 µg/mL)
- solubility in fasted state simulated gastric fluid (FaSSGF) [4]: improved solubility
- clearance [1]: 14 mL/min/kg
- AUC(0-inf) [1]: 1320 ng·h/mL
- half-life [1]: 270 min
- bioavailability [1]: 35%
- Kp [5]: 4
- chemical stability in solution [6]: improved chemical stability in solution
- Papp A→B [2, 7]: 8.9 ×10⁻⁶ cm/s
- Reactive metabolite detected (human hepatocytes): no

Compound: Cc1cc(Nc2ncc3c(n2)N(C)CN(c2c(Cl)cccc2Cl)C3=O)ccc1N1CCNCC1 [CE 6]
- Kp at 4 h [3]: 0.16
- solubility kinetic (Kinetic solubility): 170 µM (≈ 84.7 µg/mL)
- clearance [1]: 26 mL/min/kg
- AUC(0-inf) [1]: 1360 ng·h/mL
- half-life [1]: 222 min
- bioavailability [1]: 41%
- Kp [5]: 5.7
- IC50 (Wee-1 kinase): 2.7 nM
- EC50 (pCDC2): 223 nM
- CYP3A4/5 IC50 shift (CYP3A4/5): 2.3-3.0
- Papp A→B ([2]; pH 7.4, read-out: caco-2 Papp A-B (pH 7.4)): 6.6 ×10⁻⁶ cm/s
- Reactive metabolite detected (human hepatocytes): yes

Compound: Cc1cc(Nc2ncc3c(n2)N(C)CN(c2c(C)cccc2Cl)C3=O)ccc1C1CCN(C)CC1 [CE 1, 3-(2-chloro-6-methylphenyl)-1-methyl-7-((3-methyl-4-(1-methylpiperidin-4-yl)phenyl)amino)-2,3-dihydropyrimido[4,5-d]pyrimidin-4(1H)-one]
- solubility kinetic (Kinetic solubility): 189 µM (≈ 92.8 µg/mL)
- IC50 (Wee-1 kinase): 2.8 nM
- EC50 (pCDC2): 695 nM

Compound: CN1CCC(c2ccc(Nc3ncc4c(n3)N(C)CN(c3c(Cl)cccc3Cl)C4=O)cc2)CC1 [CE 95]
- solubility kinetic (Kinetic solubility): 123 µM (≈ 61.2 µg/mL)
- IC50 (Wee-1 kinase): 7.9 nM
- EC50 (pCDC2): 378 nM

Compound: Cc1cc(Nc2ncc3c(n2)N(C)CN(c2c(Cl)cccc2Cl)C3=O)ccc1C1CCNCC1 [CE 18]
- solubility kinetic (Kinetic solubility): 200 µM (≈ 99.5 µg/mL)
- clearance [1]: 48 mL/min/kg
- AUC(0-inf) [1]: 120 ng·h/mL
- bioavailability [1]: 7%
- IC50 (Wee-1 kinase): 3.7 nM
- EC50 (pCDC2): 223 nM
- Papp A→B [2, 7]: 0.3 ×10⁻⁶ cm/s
